Assay results: patent EP1228058B1, “BENZOPYRANYL GUANIDINE DERIVATIVES, PROCESS FOR PREPARATION THEREOF, AND PHARMACEUTICAL COMPOSITIONS CONTAINING THEM” (Dongbu Hannong Chemical Co., Ltd., priority 1999, dated 2001)
pIC50: −log10 of the molar value.

Legend:
[1] = Acute oral toxicity test in rats; conditions: rat, in vivo, single oral dose in 0.5% methyl cellulose, read-out: lethal dose (LD50) for oral administration
Experimental: In this test six-week old SPF SD rats were used with two rats assigned to each group. The compounds of examples 1, 2, 3, 5, 7, 8, 9, 10, 13, 14, 15, 19, 22, 23, 24, 25, 26, 28, 29, 30, 31, 32, 33, 34, 35, 36, 37, 38, 39, 40, 41, 44, 46, 47, 48, 49, 51, 52, 57, 58, 60, 62, 64, 67, 68, 69, 71 and 72 were suspended in 0.5% methyl cellulose, respectively, and administered orally at a single dose of 1 g/kg using a ball-tipped needle. The dosing volume was 10 ml/kg. […] All survivors at the end of the observation period underwent laparotomy under ether anesthesia and the blood samples were taken from the abdominal aorta for hematological tests and biochemical analysis. After sacrificing the animals, autopsy was performed for macroscopic observation of the organs and tissues. Tissue samples of vital organs from macroscopic legion were removed and fixed in 10% neutral buffered formalin solution, then processed by standard procedures for histopathology and examined under light microscope. There were no significant changes in clinical symptoms, body weight and mortalities. Also in hematology, serum chemistry parameters and macroscopic observation, no drug-related changes were observed.

rat aorta = test: Vasodilation effects on isolated blood vessels of rats (methoxamine-constricted aortic rings); format: cell-based; conditions: isolated rat aorta constricted with methoxamine (3 uM); read-out: Vasodilation Activity (in Vitro, rat aorta) (IC50)
Text: Male Sprague-Dawly rats (350-450 g, obtained from the Experimental Animal Team of the Korea Research Institute of Chemical Technology) were knocked unconscious by hitting the occipital region, sacrificed by cervical dislocation, and underwent thoracotomy. After being quickly removed, the thoracic aorta was deprived of the adipose tissue and cut into aortic rings of 3 mm width. The aorta was lightly rubbed with a modified Krebs Henseleit buffer (Physiological Salt Solution, PSS) soaked cotton club to remove the inner epithelial layer therefrom. While being suspended in an organ bath containing a physiological buffer, the vascular tissue was allowed to equilibrate under a resting tension of 2 g and then, stand for 1 hour at 37 °C for stabilization with a supply of a carbogen consisting of 95% O2-5% CO2.
Thereafter, the vascular tissue was constricted with 10^-5 M phenylephrine and washed several times with PSS and this procedure was repeated again to ensure the stable reacivity of vascular smooth muscle to repetitive constriction/dilatation.
In addition, 3x10^-6 M methoxamine was used to induce an intensive constriction in the vascular smooth muscle. When the vasoconstriction induced by the methoxamine reached and maintained a maximum, test compounds and controls were cumulatively added to the organ baths in concentrations of 1, 3, 10 and 30 uM so as to induce vasodilatation. As for the controls, they were Cromakalim and BMS-180448 (the compounds of the chemical formula 2), both known to be the first generation KATP activator with potent vasodilatation and cardioprotection effects.
Following the addition of the drugs, the change in the maximal constriction induced by methoxamine was calculated to plot a concentration-dilation response curve. Through a linear regression analysis, IC50, the drug concentration at which the vascular tissue is 50% dilated, was obtained for each drug.

[2] = test system: ischemic heart models of rats; test: Heart protective (anti-ischemic) activity in ischemic heart models of anesthetized rats; format: in vivo; conditions: 45 min occlusion, 90 min reperfusion
Experimental: Male rats (350-450 g, obtained from the Experimental Animal Team of the Korea Research Institute of Chemical Technology) were anesthetized by the intraperitoneal injection of pentobarbital at a dose of 75 mg/kg. After trachetomy, the rats were rendered to respire artificially at a rate of 60/min with a stroke volume of 10 ml/kg. Cannulars were inserted into the fermoral vein and the fermoral artery and used for drug administration and blood pressure measurement, respectively.
In the ischemic myocardium damage models, the body temperature has an important influence on the results. To avoid the change in the body temperature, a body temperature measuring probe was inserted into the rectum of each rat and the body temperature was constantly kept at 37 °C with the aid of a homeothermic blanket control unit.
Afterwards, during testing, a continuous measurement was made of the mean arterial blood pressures and heart rates from the rats. For the measurement of the blood pressure, a pressure transducer, such as that manufactured by Grass Ins., MA, U.S.A., identified as Model Statham P23XL, was used. The heart rate was measured by a tachometer, such as that manufactured by Gould Inc., OH, U.S.A., identified as Biotachometer. In addition, all of the changes occurring were continuously recorded through the Gould 2000 chart recorder, manufactured by Gould Inc.
The left coronary artery was occluded according to the Selye H. method as follows. The rats underwent a left thoracotomy operation for partial opening of the chest and the right-side chest was pressurized by the middle finger of the left hand to push the heart out. Immediately after the left anterior descending coronary artery hereinafter referred to as (LAD) was carefully stitched using a suture needle with 5-0 silk ligature, the heart was then repositioned in the thoracic cavity while both ends of the ligature were situated outside. The opposite ligature ends were passed through a PE tube (PE100, 2.5 cm) and allowed to stand loose for 20 min for stabilization. Via the cannula inserted into the femoral vein, vehicles or drugs were administered into the rats which were rendered to stand for 30 min in order to sufficiently elicit the efficacies of the drugs. BMS-180448 was used as a control drug and the i.v.administration dose was 0.3 mg/kg for all test drugs of interest and the control drug.
Next, the PE tube which had the doubled strands of the ligature passed therethrough was pushed toward the heart and then, set upright by tightly pulling end regions of the ligature with a hemostatic pincette while pressing the coronary artery. The PE tube was allowed to stand for 45 min for the occlusion of the coronary artery, followed by the removal of the hemostatic pincette and then, by the reperfusion for 90 min.
After the reocclusion of the coronary artery in accordance with the above procedure, the rats were administered with 2 ml of a 1% Evans blue through an intravenous route. Subsequently, an excess of pentobarbital was intravenously injected to kill the rats, after which the heart was removed and then, deprived of the right ventricle and both atria. The left ventricle was cut horizontally to the heart apex into 5 or 6 slices which were weighed. From the surface of each slice, images were input with the aid of a Hi-scope into a computer installed with an image analyzing program (Image Pro Plus). From the images input into the computer, the area of the normal blood stream tissue region which appeared blue in a computer monitor and the area which appeared colorless were measured. The percentage of the colorless area to the total area of each slice was calculated and multiplied by the weight of each slice to determine the area at risk (AAR) of each slice. […]

A7r5 [3] = test: Inhibition of intracellular ROS induced by H2O2 (H2DCFDA) in A7r5; format: cell-based; conditions: Rattus norvegicus
Experimental: (§1) Measurement of intracellular ROS (Reactive Oxygen Species) was determined using H2DCFDA (2',7'-dichlorodihydrofluorescein diacetate, Molecular Probes, Eugene, OR, USA). H2DCFDA is a non-polar compound that readily diffused into cells, where it is hydrolyzed by intracellular esterase to polar derivative H2DCF (2',7'-dichlorodihydrofluorescein) which can not cross the cell membrane, and thereby trapped within the cell. H2DCF is low-fluorescent, but converted to high-fluorescent DCF (2',7'-dichlorofluorescein) by intracellular ROS. Therefore, the intracellular ROS formation can be determined from the amount of converted DCF. HUVEC (Human umbilical Vascular Endothelial Cells) or A7r5 (Rat thoracic aorta smooth muscle cells) were used. HUVEC were cultured in Kaighn's F12K medium supplemented with 10% heat-inactivated FBS, 0.1 mg/ml heparin sodium, 0.03-0.05 mg/ml ECGS (Endothelial cell growth supplement) and 1% antibiotics, and A7r5 were cultured in DMEM supplemented with 10% heat inactivated FBS and 1% antibiotics. To measure the intracellular ROS, HUVEC or A7r5 were preincubated for 30 min in the presence of test compounds (10^-7-10^-5 M). Thereafter, cells were stimulated with H2O2 (10^-6 and 10^-5 M for 20 min), and then incubated in the dark for 2 hr at 37 °C in 50 mM phosphate buffer (pH 7.4) containing 5 uM H2DCFDA. The quantity of DCF fluorescence (485 nm excitation, 530 nm emission) was measured using Fluorescence plate reader (FL600, Biotek Instruments).

[4] = test system: angiogenesis induced by Angiotensin II in Sprague-Dawley rats; test: Suppression of Angiotensin II induced angiogenesis in implanted sponge (99mTc-DTPA clearance); format: in vivo; conditions: Control AII (100nmol) alone, no test drug
Human LDL = test: Inhibition of copper-induced LDL oxidation (MDA, TBA method); format: biochemical; conditions: CuSO4 10 uM, 18 hr
Experimental: Human LDL (sigma) was dissolved in distilled water at a concentration of 1 mg/ml. LDL was dialyzed against three changes of phosphate-buffered solution before oxidation to remove EDTA (ethylenediamine tetraacetate) at 4 °C for 18 hr. EDTA-free LDL (100 ug LDL protein/ml) was incubated in EDTA-free phosphate-buffered solution at 37 °C for 18 hr in the presence of CuSO4 (10 uM) under pretreatment with the test compounds or tochopherol of which final concentrations were 10^-9, 10^-7, and 10^-5 M. Blank was incubated without CuSO^., and vehicle was used as a solvent group. Oxidation was stopped at 4 °C by addition of EDTA (200 uM).
Copper (Cu^+2) facilitates the oxidation of LDL to produce malondialdehyde (MDA), thus the lipid peroxidation was determined by MDA quantification same as the above example 5 (1). The MDA quantification was estimated by reacting samples with 2-thiobarbituric acid (TBA) and measuring the absorbance at 530 nm. 1,1,3,3-Tetramethoxy propane (Sigma) was used as a standard agent, and calculated the quantity of MDA as nmol of MDA equivalents per mg protein. The inhibitory effect of the test compounds against the lipid peroxidation was evaluated by calculating MDA reduction rate of the test compounds compared with that of the control group.

HUVEC = test: Inhibition of intracellular ROS induced by H2O2 (H2DCFDA) in HUVEC; format: cell-based, Human
Experimental: as §1

A7r5 [5] = test: Inhibition of A7r5 mediated LDL oxidation (MDA); format: cell-based, rat; conditions: for % Inhibition LDL + H2O2 (10^-7M): A7r5 plus H2O2 (10^-7 M); for % Inhibition LDL: A7r5 alone, LDL 100 ug/ml, 24 hr
Experimental: A7r5 (ATCC CRL-1444, smooth muscles, thoracic aorta, BDIX rat) cells were cultured in 24 well plates, using the medium of DMEM (Dulbecco's modified Eagle's Medium) supplemented with 10% heat-inactivated FBS (fetal bovine serum) and 1% antibiotics. Confluent A7r5 from plates were washed with phosphate-buffered solution, and DMEM with 10% FBS and 1% antibiotics was added in a total volume of 0.5 ml/well. Cells (2 x 10^5 cells/ml) were preincubated without and with either test compounds (10^-6 - 10^-4 M) or Tocopherol (10^-6 - 10^-4 M) at 37 °C for 30 min. Then, A7r5 alone or A7r5 plus H2O2 (10^-7 M) were exposed to LDL (100 ug/ml) for 24 hr.
The inhibitory effect of the test compounds against the lipid peroxidation was evaluated by calculating MDA reduction rate of the test compounds compared with that of the control group same as the above example 5 (2).

[6] = ORAC (oxygen-radical absorbance capacity) assay; format: biochemical; conditions: 1 ORAC unit = net protection by 1 uM Trolox
Experimental: The method utilized β-PE (β-phycoerythrin) as an indicator protein, and AAPH (2,2'-azobis(2-amidinopropane) dihydrochloride) as a peroxy radical generator. Reaction mixtures consisted of test compounds (10^-6M and 10^-4M), β-PE (1.76 x 10^-8M), and AAPH (3 x 10^-3 M) in 75 mM phosphate buffer (pH 7.0). A final volume of 2 ml was used in 24 well plates. Test compounds were first dissolved in acetone and then added to the reaction mixture. Once AAPH was added, the reaction was initiated at 37 °C and the fluorescence (485 nm excitation, 590 nm emission) was measured every 5 min using Fluorescence reader (FL600, Biotek Instrument). The ORAC units were calculated based on the area under the fluorescence curve of β-PE in the presence of the test compound compared to the area generated by 1 uM Trolox. 1 ORAC unit represents the net protection provided by 1 uM Trolox.

COC(OC)[C@@]1(C)Oc2ccc(NC(C)=O)cc2[C@@H](NC(=NC#N)NCc2ccccc2)[C@@H]1O [Example 41]
LD50 [1]: > 1000 mg/kg | pIC50 (rat aorta): < 4.52 | Anti-ischemic Activity (in vivo, rats) (0.3 mg/kg i.v.) IZ/AAR (%) [2]: 30.25%

CC(C)(Sc1cc(C(C)(C)C)c(O)c(C(C)(C)C)c1)Sc1cc(C(C)(C)C)c(O)c(C(C)(C)C)c1 [Probucol, reference compound]
inhibition at 10 µM (A7r5 [3]; A7r5, Conc. 10^-5 M, read-out: Inhibition (%) H2O2 (10^-6M)): 185% | inhibition at 1 µM (A7r5 [3]; A7r5, Conc. 10^-6 M): 184% | inhibition at 0.1 µM (A7r5 [3]; A7r5, Conc. 10^-7 M, read-out: Inhibition (%) H2O2 (10^-6M)): 72%

Angiotensin II [AII, reference compound]
Clearance of ^99mTC (%) [4]: 44.71%

Tocopherol [reference compound]
% Inhibition (Human LDL; 10^-5 M): 29.7% | % Inhibition (Human LDL; 10^-7 M, 0.1 µM): 21.3% | % Inhibition (Human LDL; 10^-9 M, 0.001 µM): 18.5% | Inhibition (%) H2O2 (10^-5M) (HUVEC; Conc. 10^-5 M): 51.0% | Inhibition (%) H2O2 (10^-6M) (HUVEC; Conc. 10^-5 M): 60.8% | Inhibition (%) H2O2 (10^-5M) (HUVEC; Conc. 10^-6 M): 30.7% | Inhibition (%) H2O2 (10^-6M) (HUVEC; Conc. 10^-6 M): 43.2% | Inhibition (%) H2O2 (10^-5M) (HUVEC; Conc. 10^-7 M): 8.8% | Inhibition (%) H2O2 (10^-6M) (HUVEC; Conc. 10^-7 M): 13.8% | % Inhibition LDL + H2O2 (10^-7M) (A7r5 [5]; 10^-4 M): 63.9% | % Inhibition LDL (A7r5 [5]; 10^-5 M): 57.0% | % Inhibition LDL + H2O2 (10^-7M) (A7r5 [5]; 10^-5 M): 53.0% | % Inhibition LDL (A7r5 [5]; 10^-6 M): 41.1% | % Inhibition LDL + H2O2 (10^-7M) (A7r5 [5]; 10^-6 M): 43.2% | ORAC units ([6]; Conc. 10^-4 M): 1.568 ORAC units | ORAC units ([6]; Conc. 10^-6 M): 1.0 ORAC units
